# From PubChem BioAssay AID1918999 (Molecular Pharmacology Branch, DTP, NCI, 2023)
# Test system: 556581-035-R-J1-PDC complex spheroid growth
# Test: Anticancer human tumor 556581-035-R-J1-PDC patient-derived ovarian carcinoma cell line growth inhibition [AhR]
# Conditions: for IC50: curve of first compound; for viability, T/C: stronger effect = lower value
# Outline: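 Agents were dosed in half-log steps down from roughly clinical Cmax, or from 10 microM where Cmax was unknown, alone and with AhR antagonists. Read-out: percent test/control growth of tumor spheroids containing HUVEC and MSC stromal cells.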
# [1] = second compound 0.1 µM, first compound 0.000949 µM
# [2] = second compound 0.1 µM, first compound 0.003 µM
# [3] = second compound 0.1 µM, first compound 0.00949 µM
# [4] = second compound 0.1 µM, first compound 0.03 µM
# [5] = second compound 0.1 µM, first compound 0.0949 µM
# [6] = second compound 0.1 µM, first compound 0.3 µM
# [7] = second compound 0.316 µM, first compound 0.000949 µM
# [8] = second compound 0.316 µM, first compound 0.003 µM
# [9] = second compound 0.316 µM, first compound 0.00949 µM
# [10] = second compound 0.316 µM, first compound 0.03 µM
# [11] = second compound 0.316 µM, first compound 0.0949 µM
# [12] = second compound 0.316 µM, first compound 0.3 µM
# [13] = second compound 1 µM, first compound 0.000949 µM
# [14] = second compound 1 µM, first compound 0.003 µM
# [15] = second compound 1 µM, first compound 0.00949 µM
# [16] = second compound 1 µM, first compound 0.03 µM
# [17] = second compound 1 µM, first compound 0.0949 µM
# [18] = second compound 1 µM, first compound 0.3 µM
# [19] = second compound 3.16 µM, first compound 0.000949 µM
# [20] = second compound 3.16 µM, first compound 0.003 µM
# [21] = second compound 3.16 µM, first compound 0.00949 µM
# [22] = second compound 3.16 µM, first compound 0.03 µM
# [23] = second compound 3.16 µM, first compound 0.0949 µM
# [24] = second compound 3.16 µM, first compound 0.3 µM
# [25] = second compound 10 µM, first compound 0.000949 µM
# [26] = second compound 10 µM, first compound 0.003 µM
# [27] = second compound 10 µM, first compound 0.00949 µM
# [28] = second compound 10 µM, first compound 0.03 µM
# [29] = second compound 10 µM, first compound 0.0949 µM
# [30] = second compound 10 µM, first compound 0.3 µM
# [31] = second compound 0.1 µM, first compound 0.0316 µM
# [32] = second compound 0.1 µM, first compound 0.1 µM
# [33] = second compound 0.1 µM, first compound 0.316 µM
# [34] = second compound 0.1 µM, first compound 1 µM
# [35] = second compound 0.1 µM, first compound 3.16 µM
# [36] = second compound 0.1 µM, first compound 10 µM
# [37] = second compound 0.316 µM, first compound 0.0316 µM
# [38] = second compound 0.316 µM, first compound 0.1 µM
# [39] = second compound 0.316 µM, first compound 0.316 µM
# [40] = second compound 0.316 µM, first compound 1 µM
# [41] = second compound 0.316 µM, first compound 3.16 µM
# [42] = second compound 0.316 µM, first compound 10 µM
# [43] = second compound 1 µM, first compound 0.0316 µM
# [44] = second compound 1 µM, first compound 0.1 µM
# [45] = second compound 1 µM, first compound 0.316 µM
# [46] = second compound 1 µM, first compound 1 µM
# [47] = second compound 1 µM, first compound 3.16 µM
# [48] = second compound 1 µM, first compound 10 µM
# [49] = second compound 3.16 µM, first compound 0.0316 µM
# [50] = second compound 3.16 µM, first compound 0.1 µM
# [51] = second compound 3.16 µM, first compound 0.316 µM
# [52] = second compound 3.16 µM, first compound 1 µM
# [53] = second compound 3.16 µM, first compound 3.16 µM
# [54] = second compound 3.16 µM, first compound 10 µM
# [55] = second compound 10 µM, first compound 0.0316 µM
# [56] = second compound 10 µM, first compound 0.1 µM
# [57] = second compound 10 µM, first compound 0.316 µM
# [58] = second compound 10 µM, first compound 1 µM
# [59] = second compound 10 µM, first compound 3.16 µM
# [60] = second compound 10 µM, first compound 10 µM
# 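Throughout, for viability, T/C: compound exposure lasted 7 days; 100% = DMSO vehicle control growth.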
compound,measurement,setting,value
CC(C)CC(NC(=O)C(Cc1ccccc1)NC(=O)c1cnccn1)B(O)O (stereo not given) + Cc1ccccc1N=Nc1ccc(NC(=O)c2ccnn2C)c(C)c1,IC50,second compound 0.1 µM,5.78 nM
same,IC50,second compound 0.316 µM,5.73 nM
same,IC50,second compound 1 µM,5.9 nM
same,IC50,second compound 3.16 µM,5.64 nM
same,IC50,second compound 10 µM,5.97 nM
same,"viability, T/C",[1],91.6%
same,"viability, T/C",[2],117%
same,"viability, T/C",[3],8.91%
same,"viability, T/C",[4],0.21%
same,"viability, T/C",[5],0.17%
same,"viability, T/C",[6],0.27%
same,"viability, T/C",[7],97.2%
same,"viability, T/C",[8],105%
same,"viability, T/C",[9],10.2%
same,"viability, T/C",[10],0.34%
same,"viability, T/C",[11],0.22%
same,"viability, T/C",[12],0.22%
same,"viability, T/C",[13],90.2%
same,"viability, T/C",[14],115%
same,"viability, T/C",[15],13.2%
same,"viability, T/C",[16],0.19%
same,"viability, T/C",[17],0.16%
same,"viability, T/C",[18],0.26%
same,"viability, T/C",[19],88.2%
same,"viability, T/C",[20],100%
same,"viability, T/C",[21],13.6%
same,"viability, T/C",[22],0.16%
same,"viability, T/C",[23],0.17%
same,"viability, T/C",[24],0.22%
same,"viability, T/C",[25],82.3%
same,"viability, T/C",[26],89.1%
same,"viability, T/C",[27],25.9%
same,"viability, T/C",[28],0.35%
same,"viability, T/C",[29],0.31%
same,"viability, T/C",[30],0.28%
CCc1c2c(nc3ccc(O)cc13)-c1cc3c(c(=O)n1C2)COC(=O)[C@]3(O)CC + Cc1ccccc1N=Nc1ccc(NC(=O)c2ccnn2C)c(C)c1,IC50,second compound 0.1 µM,21.2 nM
same,IC50,second compound 0.316 µM,17 nM
same,IC50,second compound 1 µM,18.8 nM
same,IC50,second compound 3.16 µM,20.5 nM
same,IC50,second compound 10 µM,22.1 nM
same,"viability, T/C",[1],97.1%
same,"viability, T/C",[2],87.2%
same,"viability, T/C",[3],64.8%
same,"viability, T/C",[4],42%
same,"viability, T/C",[5],27.1%
same,"viability, T/C",[6],12.8%
same,"viability, T/C",[7],98.1%
same,"viability, T/C",[8],86.4%
same,"viability, T/C",[9],64.3%
same,"viability, T/C",[10],36.5%
same,"viability, T/C",[11],18.3%
same,"viability, T/C",[12],12.7%
same,"viability, T/C",[13],98.8%
same,"viability, T/C",[14],82.5%
same,"viability, T/C",[15],64.1%
same,"viability, T/C",[16],41.5%
same,"viability, T/C",[17],23.7%
same,"viability, T/C",[18],16.7%
same,"viability, T/C",[19],84%
same,"viability, T/C",[20],86.5%
same,"viability, T/C",[21],74.6%
same,"viability, T/C",[22],37.2%
same,"viability, T/C",[23],20.7%
same,"viability, T/C",[24],14.1%
same,"viability, T/C",[25],94.5%
same,"viability, T/C",[26],88.3%
same,"viability, T/C",[27],72.9%
same,"viability, T/C",[28],40.8%
same,"viability, T/C",[29],23.2%
same,"viability, T/C",[30],14.2%
Nc1ccccc1NC(=O)c1ccc(CNC(=O)OCc2cccnc2)cc1 + Cc1ccccc1N=Nc1ccc(NC(=O)c2ccnn2C)c(C)c1,IC50,second compound 0.1 µM,2120 nM
same,IC50,second compound 0.316 µM,2310 nM
same,IC50,second compound 1 µM,2790 nM
same,IC50,second compound 3.16 µM,2640 nM
same,IC50,second compound 10 µM,3110 nM
same,"viability, T/C",[31],101%
same,"viability, T/C",[32],112%
same,"viability, T/C",[33],87.2%
same,"viability, T/C",[34],69.3%
same,"viability, T/C",[35],40.8%
same,"viability, T/C",[36],18.9%
same,"viability, T/C",[37],110%
same,"viability, T/C",[38],102%
same,"viability, T/C",[39],93.7%
same,"viability, T/C",[40],72.2%
same,"viability, T/C",[41],41.1%
same,"viability, T/C",[42],19.4%
same,"viability, T/C",[43],110%
same,"viability, T/C",[44],106%
same,"viability, T/C",[45],92.7%
same,"viability, T/C",[46],70%
same,"viability, T/C",[47],49%
same,"viability, T/C",[48],21.5%
same,"viability, T/C",[49],113%
same,"viability, T/C",[50],104%
same,"viability, T/C",[51],88.3%
same,"viability, T/C",[52],68.5%
same,"viability, T/C",[53],47.3%
same,"viability, T/C",[54],20.6%
same,"viability, T/C",[55],99.5%
same,"viability, T/C",[56],95.9%
same,"viability, T/C",[57],92.9%
same,"viability, T/C",[58],68.2%
same,"viability, T/C",[59],52.2%
same,"viability, T/C",[60],32.8%
O=C(c1cc(Cc2n[nH]c(=O)c3ccccc23)ccc1F)N1CCN(C(=O)C2CC2)CC1 + Cc1ccccc1N=Nc1ccc(NC(=O)c2ccnn2C)c(C)c1,IC50,second compound 0.1 µM,> 10000 nM
same,IC50,second compound 0.316 µM,> 10000 nM
same,IC50,second compound 1 µM,> 10000 nM
same,IC50,second compound 3.16 µM,> 10000 nM
same,IC50,second compound 10 µM,> 10000 nM
same,"viability, T/C",[31],100%
same,"viability, T/C",[32],92.5%
same,"viability, T/C",[33],89.2%
same,"viability, T/C",[34],95%
same,"viability, T/C",[35],78.3%
same,"viability, T/C",[36],76.1%
same,"viability, T/C",[37],103%
same,"viability, T/C",[38],88.2%
same,"viability, T/C",[39],87.8%
same,"viability, T/C",[40],97.3%
same,"viability, T/C",[41],87.8%
same,"viability, T/C",[42],72.3%
same,"viability, T/C",[43],92.7%
same,"viability, T/C",[44],96.8%
same,"viability, T/C",[45],93.3%
same,"viability, T/C",[46],99.5%
same,"viability, T/C",[47],93.3%
same,"viability, T/C",[48],76.6%
same,"viability, T/C",[49],89%
same,"viability, T/C",[50],93.7%
same,"viability, T/C",[51],84.2%
same,"viability, T/C",[52],80.9%
same,"viability, T/C",[53],82.4%
same,"viability, T/C",[54],77.5%
same,"viability, T/C",[55],78.2%
same,"viability, T/C",[56],82.3%
same,"viability, T/C",[57],82.5%
same,"viability, T/C",[58],82.6%
same,"viability, T/C",[59],82.4%
same,"viability, T/C",[60],74.8%
